Laboratory results from patent publication US11306123B2, “Heterotandem bicyclic peptide complex” (BicycleTx Limited, priority 2019, dated 2022).
Read-outs that look alike come from different tables or passages of the source.

Assays:
[1] = Pharmacokinetics in SD Rats; assay type: in vivo, rat
Procedure: 3. Pharmacokinetics of the Nectin-4/CD137 Heterotandem BCY11863 in SD Rats
Male SD Rats were dosed with the Nectin-4/CD137 heterotandem BCY11863 formulated in 25 mM Histidine HCl, 10% sucrose pH 7 by IV bolus, IV infusion (15 minutes) or subcutaneously. Serial bleeding (about 80 μL blood/time point) was performed via submandibular or saphenous vein at each time point. All blood samples were immediately transferred into prechilled microcentrifuge tubes containing 2 μL K2-EDTA (0.5M) as anti-coagulant and placed on wet ice. Blood samples were immediately processed for plasma by centrifugation at approximately 4° C., 3000 g. The precipitant including internal standard was immediately added into the plasma, mixed well and centrifuged at 12,000 rpm, 4° C. for 10 minutes. The supernatant was transferred into pre-labeled polypropylene microcentrifuge tubes, and then quick-frozen over dry ice. The samples were stored at […] or below as needed until analysis. 7.5 μL of the supernatant samples were directly injected for LC-MS/MS analysis using an Orbitrap Q Exactive in positive ion mode to determine the concentrations of analyte. Plasma concentration versus time data were analyzed by non-compartmental approaches using the Phoenix WinNonlin 6.3 software program. C0, CI, Vdss, T½, AUC(0-last), AUC(0-inf), MRT(0-last), MRT(0-inf) and graphs of plasma concentration versus time profile were reported.

[2] = biological target: T1, cyno CD137 (Macaca fascicularis, UniProt A9YYE7); experiment: SPR, biotinylated analogue captured on chip, binding to CD137 extracellular domain
T1 construct: extracellular domain: SPR data
T1 sequence (A9YYE7 24-186): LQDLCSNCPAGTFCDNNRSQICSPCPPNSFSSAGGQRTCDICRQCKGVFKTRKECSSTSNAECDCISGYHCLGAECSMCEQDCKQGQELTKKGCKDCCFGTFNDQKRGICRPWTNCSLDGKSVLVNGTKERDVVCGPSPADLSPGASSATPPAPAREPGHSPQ

[3] = biological target: T2, human CD137 (Homo sapiens, UniProt Q07011); experiment: as above
T2 construct: extracellular domain: SPR data
T2 sequence (Q07011 24-186 limits assumed): as the sequence (A9YYE7 24-186) above, with L4P, S19N, K50R, I66T, S67P, Y69F, E75G, A149V counted along it

[4] = test system: 5484 full-length human plasma membrane proteins and secreted proteins expressed in HEK293 cells; experiment: Retrogenix cell microarray off-target screening; assay type: binding; conditions: 1 μM test peptide
Procedure: Retrogenix microarray screening: Retrogenix's cell microarray technology was used to screen for specific off-target binding interactions of a biotinylated BCY11863 known as BCY13582.
Under these conditions, the test peptide was screened for binding against human HEK293 cells, individually expressing 5484 full-length human plasma membrane proteins and secreted proteins.
Each primary hit was re-expressed, along with two control receptors (TGFBR2 and EGFR), and re-tested with 1 μM BCY13582 test peptide, 1 μM BCY13582 test peptide in the presence of 100 μM BCY11863, and other positive and negative control treatments (FIG. 4). […] These were untethered and tethered forms of Nectin-4, and CD137—the primary targets.

[5] = in vivo, SD rat plasma, analyte after 100 mg/kg IV BCY11863
[6] = in vivo, SD rat plasma, analyte after 100 mg/kg IV BCY11863, read-out: T1/2 (converted)

SMILES | AUC [1, 5] | Cmax [1, 5] | half-life [1, 6] | Kd [2] | Kd [3] | Specific off-target interactions [4] | Conversion to BCY14602 ([1]; SD rats, IV 100 mg/kg, first 24 h of the study) | Fraction metabolized to BCY15155 ([1]; SD rats, IV administration, 100 mg/kg) | clearance ([1]; in vivo, SD rat, 100 mg/kg IV BCY11863, read-out: Clp) | half-life ([1]; rat, in vivo, SD rats, 3.2 mg/kg IV Inf (15 min), read-out: T½ (converted)) | half-life ([1]; rat, in vivo, SD rats, 6.3 mg/kg Sc, read-out: T½ (converted))
CCCC[C@@H]1NC(=O)[C@H](Cc2ccc(O)cc2)NC(=O)[C@@H]2CCCN2C(=O)[C@H](CC(=O)O)NC(=O)[C@H](C)NC(=O)[C@H](Cc2ccccc2)NC(=O)[C@@H]2CSCCC(=O)N3CN(CN(C3)C(=O)CCSC[C@@H](C(=O)N[C@@H](C)C(N)=O)NC1=O)C(=O)CCSC[C@H](NC(C)=O)C(=O)N[C@@H](CC(C)(C)C)C(=O)N1CCC[C@H]1C(=O)N[C@@H](CCC(=O)O)C(=O)N[C@H](CCCCNC(=O)CCc1cn(CCOCCOCCOCCN(CCOCCOCCOCCC(=O)N[C@H]3CSCCC(=O)N4CN5CN(C4)C(=O)CCSC[C@H](NC(=O)[C@@H](CC(=O)O)NC(=O)[C@H](Cc4cccc6ccccc46)NC(=O)[C@@H]4CCCN4C3=O)C(=O)N[C@@H](CCSC)C(=O)N[C@@H](CCCCNC(=N)N)C(=O)N[C@@H](CC(=O)O)C(=O)N[C@@H](Cc3c[nH]c4ccccc34)C(=O)N[C@@H](CO)C(=O)N[C@@H]([C@@H](C)O)C(=O)N3CCC[C@H]3C(=O)N3C[C@H](O)C[C@H]3C(=O)N[C@@H](Cc3c[nH]c4ccccc34)C(=O)N[C@H](C(N)=O)CSCCC5=O)CCOCCOCCOCCn3cc(CCC(=O)NCCCC[C@H]4NC(=O)[C@H](CCC(=O)O)NC(=O)[C@@H]5CCCN5C(=O)[C@H](CC(C)(C)C)NC(=O)[C@@H](N)CSCCC(=O)N5CN6CN(C5)C(=O)CCSC[C@H](NC(=O)[C@H](Cc5ccc(O)cc5)NC(=O)[C@@H]5CCCN5C4=O)C(=O)N[C@@H](Cc4ccccc4)C(=O)N[C@@H](C)C(=O)N[C@@H](CC(=O)O)C(=O)N4CCC[C@H]4C(=O)N[C@@H](Cc4ccc(O)cc4)C(=O)N[C@@H](CCCC)C(=O)N[C@H](C(=O)N[C@@H](C)C(N)=O)CSCCC6=O)nn3)nn1)C(=O)N1CCC[C@H]1C(=O)N[C@@H](Cc1ccc(O)cc1)C(=O)N2 [BCY15155] | 1300 ng·h/mL | 2.85 µg/mL | 3.1 h |  |  |  |  |  |  |  | 
CCCC[C@@H]1NC(=O)[C@H](Cc2ccc(O)cc2)NC(=O)[C@@H]2CCCN2C(=O)[C@H](CC(=O)O)NC(=O)[C@H](C)NC(=O)[C@H](Cc2ccccc2)NC(=O)[C@@H]2CSCCC(=O)N3CN(CN(C3)C(=O)CCSC[C@@H](C(=O)N[C@@H](C)C(N)=O)NC1=O)C(=O)CCSC[C@H](NC(C)=O)C(=O)N[C@@H](CC(C)(C)C)C(=O)N1CCC[C@H]1C(=O)N[C@@H](CCC(=O)O)C(=O)N[C@H](CCCCNC(=O)CCc1cn(CCOCCOCCOCCN(CCOCCOCCOCCC(=O)N[C@H]3CSCCC(=O)N4CN5CN(C4)C(=O)CCSC[C@H](NC(=O)[C@@H](CC(=O)O)NC(=O)[C@H](Cc4cccc6ccccc46)NC(=O)[C@@H]4CCCN4C3=O)C(=O)N[C@@H](CCSC)C(=O)N[C@@H](CCCCNC(=N)N)C(=O)N[C@@H](CC(=O)O)C(=O)N[C@@H](Cc3c[nH]c4ccccc34)C(=O)N[C@@H](CO)C(=O)N[C@@H]([C@@H](C)O)C(=O)N3CCC[C@H]3C(=O)N3C[C@H](O)C[C@H]3C(=O)N[C@@H](Cc3c[nH]c4ccccc34)C(=O)N[C@H](C(N)=O)CSCCC5=O)CCOCCOCCOCCn3cc(CCC(=O)NCCCC[C@H]4NC(=O)[C@H](CCC(=O)O)NC(=O)[C@@H]5CCCN5C(=O)[C@H](CC(C)(C)C)NC(=O)[C@@H](NC(C)=O)CSCCC(=O)N5CN6CN(C5)C(=O)CCSC[C@H](NC(=O)[C@H](Cc5ccc(O)cc5)NC(=O)[C@@H]5CCCN5C4=O)C(=O)N[C@@H](Cc4ccccc4)C(=O)N[C@@H](C)C(=O)N[C@@H](CC(=O)O)C(=O)N4CCC[C@H]4C(=O)N[C@@H](Cc4ccc(O)cc4)C(=O)N[C@@H](CCCC)C(=O)N[C@H](C(=O)N[C@@H](CCCCNC(=O)CCOCCOCCOCCOCCOCCOCCOCCOCCOCCOCCOCCOCCNC(=O)CCCC[C@@H]4SC[C@@H]5NC(=O)N[C@@H]54)C(N)=O)CSCCC6=O)nn3)nn1)C(=O)N1CCC[C@H]1C(=O)N[C@@H](Cc1ccc(O)cc1)C(=O)N2 [BCY13582] |  |  |  | 4.23 nM | 8.4 ± 4.2 nM | No specific off-target interactions were identified |  |  |  |  | 
CCCC[C@@H]1NC(=O)[C@H](Cc2ccc(O)cc2)NC(=O)[C@@H]2CCCN2C(=O)[C@H](CC(=O)O)NC(=O)[C@H](C)NC(=O)[C@H](Cc2ccccc2)NC(=O)[C@@H]2CSCCC(=O)N3CN(CN(C3)C(=O)CCSC[C@@H](C(=O)N[C@@H](C)C(N)=O)NC1=O)C(=O)CCSC[C@H](NC(C)=O)C(=O)N[C@@H](CC(C)(C)C)C(=O)N1CCC[C@H]1C(=O)N[C@@H](CCC(=O)O)C(=O)N[C@H](CCCCNC(=O)CCc1cn(CCOCCOCCOCCN(CCOCCOCCOCCC(=O)N[C@H]3CSCCC(=O)N4CN5CN(C4)C(=O)CCSC[C@H](NC(=O)[C@@H](CC(=O)O)NC(=O)[C@H](Cc4cccc6ccccc46)NC(=O)[C@@H]4CCCN4C3=O)C(=O)N[C@@H](CCSC)C(=O)N[C@@H](CCCCNC(=N)N)C(=O)N[C@@H](CC(=O)O)C(=O)N[C@@H](Cc3c[nH]c4ccccc34)C(=O)N[C@@H](CO)C(=O)N[C@@H]([C@@H](C)O)C(=O)N3CCC[C@H]3C(=O)N3C[C@H](O)C[C@H]3C(=O)N[C@@H](Cc3c[nH]c4ccccc34)C(=O)N[C@H](C(N)=O)CSCCC5=O)CCOCCOCCOCCn3cc(CCC(=O)NCCCC[C@H]4NC(=O)[C@H](CCC(=O)O)NC(=O)[C@@H]5CCCN5C(=O)[C@H](CC(C)(C)C)NC(=O)[C@@H](NC(C)=O)CSCCC(=O)N5CN6CN(C5)C(=O)CCSC[C@H](NC(=O)[C@H](Cc5ccc(O)cc5)NC(=O)[C@@H]5CCCN5C4=O)C(=O)N[C@@H](Cc4ccccc4)C(=O)N[C@@H](C)C(=O)N[C@@H](CC(=O)O)C(=O)N4CCC[C@H]4C(=O)N[C@@H](Cc4ccc(O)cc4)C(=O)N[C@@H](CCCC)C(=O)N[C@H](C(=O)N[C@@H](C)C(N)=O)CSCCC6=O)nn3)nn1)C(=O)N1CCC[C@H]1C(=O)N[C@@H](Cc1ccc(O)cc1)C(=O)N2 [BCY11863] | 130000 ng·h/mL | 280 µg/mL | 5.4 h |  |  |  | No significant conversion to BCY14602 | < 1% | 13 mL/min/kg | 3.1 h | 2.5 h
